Entries after “also recorded” stand apart in the source; their conditions may differ.
Tests used:
Format in all cases: cell-based, mouse
PAK2 = test: Immunoprecipitation/kinase assay of PAK2 from neurospheres; settings: inhibited vs control treated cultures, neurosphere differentiation
[1] = tested on: clonally-derived CD1 neurospheres; test: CD1 neurosphere differentiation with caspase inhibitor: immunocytochemistry and immunoblot of neural markers; settings: for nestin expression under differentiation conditions: early periods (48 h)
Protocol: Neurosphere culture: clonally-derived neurospheres were generated from the striatum of E14.5 CD1 murine embryos according to methods previously described (Reynolds, B. A., and Weiss, S. (1996) Dev Biol 175, 1-13). The neurospheres were maintained in NeuroCult Proliferation Medium (StemCell Technologies, Canada) supplemented with 20 ng/ml basic fibroblast growth factor (bFGF) as per manufacturer's instructions.
(§1) Neurospheres were sub-cultured no more than once per collection. The differentiation of neurospheres was initated by plating spheres on poly-L-ornithine coated plates in NeuroCult Differentiation Medium in the absence of bFGF, as per manufacturer's instructions. […] All cultures received fresh media and inhibitor every 24 h for the duration of the experiment. Neurospheres from caspase 3 null embryos (Fernando, P., et al., (2002) Proc Natl Acad Sci USA 99, 11025-11030) were cultured as described above.
Immunocytochemistry: Neurospheres were collected at selected time points, fixed in 4% paraformaldehyde and prepared for immunostaining as previously described (Fernando, P., et al., (2002) Proc Natl Acad Sci USA 99, 11025-11030)). The primary antibody concentrations for anti-nestin, -GFAP, -MBP and -active caspase 3 (BioVision, USA) were titrated on wildtype CD1 neurospheres prior to their experimental use. These antibodies were visualized by counterstaining with either FITC or Cy3 conjugated secondary antibodies (Chemicon USA). Nuclei were localized with 4′,6-Diamidino-2 phenylindole (DAPI) (Sigma, USA). Cells were visualized using either an Axiovert 100 for transmission microscopy or Axioplan 2 for fluorescent microscopy (Zeiss, Germany) at selected magnifications. Captured images were processed using AxioVision Viewer 3.0 software.
Immunoblot Assays: Immunoblot analyses were performed as previously described (Fernando, P., et al., (2002) Proc Natl Acad Sci USA 99, 11025-11030). All samples were processed at 4° C. to maintain protein integrity. To generate neurosphere cell extracts, cultured neurospheres were collected at the indicated time points and solubilized in modified RIPA buffer containing protease and phosphatase inhibitors. Cells were sheared 4-5 times through a 21 gauge needle and mixed by 360° rotation at 4° C. for 30 minutes. Nestin 3 (AbCam, UK) was detected following the separation of total cellular proteins through a 6% acrylamide gel and Western transfer. Antibodies against neuronal class III […] and GFAP (AbCam, USA), active caspase 3 (BioVision, USA), 2′3′ cyclic nucleotide 3′ phosphohydrolase (CNPase) (Chemicon, USA) and p38α (Santa Cruz, USA) were used to detect proteins following separation by 10% polyacrylamide electrophoresis and Western transfer. In some instances, sample aliquots were sonicated following cell lysis in order to detect total cellular poly-ADP ribose polymerase (PARP) (BioVison, USA). Soluble PARP was assayed from unsonicated samples. Protein bands from Western blot assays were quantitated using Scion Image (Scion Corporation, USA).

p38α = test: Immunoprecipitation/kinase assay of p38α from neurospheres; settings: differentiation media under caspase 3 inhibition
Protocol: (§2) Immunoprecipitation/Kinase activity assays: Immunoprecipitation/kinase analyses were performed as previously described (Fernando, P., et al., (2002) Proc Natl Acad Sci USA 99, 11025-11030). Cellular lysates from neurospheres were generated as described above. Antibodies against apoptotic signal-regulating kinase 1 (ASK1) (Upstate, USA), p21 activated kinase 1 (PAK1) (Cell Signaling Technologies, USA), and p38 MAPK (Santa Cruz, USA) were used to immunoprecipitate respective proteins. Samples were mixed with Protein G-sepharose beads for 1 h, washed and then mixed with kinase assay buffer containing myelin basic protein (MBP) and γ-32P[ATP]. Samples were reacted at 30° C. for 30 min and separated using SDS-PAGE. In some instances, samples were transferred to PVDF membrane following electrophoresis. To quantify kinase activities, MBP acrylamide bands were excised and solubilized in scintillation fluid prior to 32P-liquid scintillation analyses. In all cases, an activated recombinant mitogen activated protein kinase activated protein-2 (MAPKAP kinase-2) (Upstate, USA) was used as an internal control for liquid scintillation analyses.
ASK1 activity was reduced when cells were treated with differentiation media containing z-DEVD (DEVD condition) compared to differentiation media alone (DMSO condition) (FIG. 19c,d). Both PAK1 and ASK1 have been linked to the downstream activity of p38 MAPK. […]

CD1 neurosphere cells = test: Annexin-V-PI flow cytometry of differentiating neurosphere cells
Protocol: as §1
Flow Cytometry: Annexin-V-propidium iodide (PI) analysis of apoptotic and nectrotic cells was performed using an Annexin-V-FLUOS staining kit (Roche, USA). Analyses were performed using a Beckman-Coulter ALTRA flow cytometer. To detect Annexin-V and PI positive cells, flow cytometric channels were gated using cells without stain, stained with PI alone and stained with Annexin-V alone. Cells that had dissociated from their neurosphere bodies were gently collected without excessive disruption of the sphere/cell body. These cells were chosen for flow cytometry analyses. Each sample was gated to control for cellular debris.
As in most developmental processes, a population of cells is required to undergo apoptosis prior to the differentiation of a separate pool of cells. Clearly, the inhibition of caspase 3 may adversely affect this process. To address this issue, we measured the degree of apoptosis that occurred during differentiation in caspase 3 inhibited and uninhibited cells using the specific caspase 3 peptide inhibitor zDEVD.fmk and Annexin V-propidium iodide (PI) staining coupled to cytometric analyses (FIG. 15). Annexin V detects cells that are either apoptotic or necrotic whereas propidium iodide is able to detect necrotic cells. Together, Annexin-V-PI analyses identify the population of cells that are apoptotic, i.e. Annexin-V positive/PI negative. To control for the heterogeneity of cells within neurospheres as described previously (Bez et al., (2003) Brain Res 993, 18-29), we performed our analyses on cells that had dissociated from the neurosphere. […]

ASK1 = test: Immunoprecipitation/kinase assay of ASK1 from neurospheres; settings: differentiation media, vs DMSO
Protocol: as §2
Caspase 3, when processed to its active form, is capable of targeting and activating many protein kinases that mediate cellular differentiation. […]

[2] = 2.0 μM inhibitor, differentiation media 48 h

COC(=O)CC[C@H](NC(=O)[C@H](CC(=O)OC)NC(=O)OCc1ccccc1)C(=O)N[C@H](C(=O)N[C@@H](CC(=O)OC)C(=O)CF)C(C)C [z-DEVD.fmk]
PAK2 activity (PAK2): did not observe differences in PAK2 activity | GFAP expression [1, 2]: significant decrease; also recorded: fail to express the astrocyte marker protein GFAP | MBP expression [1, 2]: significant decrease; also recorded: fail to express the oligodendrocyte marker protein MBP | nestin expression under differentiation conditions ([1]; 2.0 μM inhibitor, differentiation media): sustained expression of nestin; also recorded: remain in an early progenitor state and express nestin | nestin expression under differentiation conditions ([1]; 2.0 μM inhibitor, differentiation media, listed as DEVD): remained elevated | nestin expression under differentiation conditions ([1]; 2.0 μM inhibitor, differentiation media, listed as z-DEVD): remained elevated during the early periods of differentiation | nestin expression under growth conditions ([1]; 2.0 μM inhibitor, growth conditions): did not affect nestin expression; also recorded: express nestin | nestin after extended period in differentiation media ([1]; 4 d, immunoblot): a decrease in nestin was observed | β-III tubulin level after 5 d ([1]; 5 d differentiation, immunoblot): very low level of β-III tubulin was detectable | β-III tubulin (Tuj-1) accumulation ([1]; differentiation media, immunoblot, vs DMSO): did not increase; also recorded: lower in caspase 3 inhibited samples relative to control | p38α kinase activity (p38α): very low levels of p38α kinase activity | Annexin-V positive/PI positive cell population (CD1 neurosphere cells; 12 h in differentiation media, cells dissociated from neurosphere): approximately 27% | level of apoptosis (Annexin-V-PI) (CD1 neurosphere cells; 24 h in differentiation media): 33% | effect on apoptosis during neurosphere differentiation (CD1 neurosphere cells; inhibited relative to uninhibited cells): did not affect apoptosis | ASK1 kinase activity (ASK1; listed as DEVD): decrease | ASK1 kinase activity (ASK1; listed as z-DEVD): reduced
